Assay results published in publication PMC11206778, “Preclinical Pharmacokinetic Study and Lung Penetration of a Coumarin Extracted from Zanthoxylum tingoassuiba” (Pharmaceutics, 2024).
Read-outs that look alike come from different tables or passages of the source. One block for each compound: values may come before it.

Experiments:
[1] = system: arteries isolated from rats; parameters: method as in PMID 31711783, PMID 37149230; conditions: cited from earlier work
[2] = Lung distribution in mice (AUC lung/AUC plasma ratio); assay type: in vivo; conditions: male, Balb/c, mouse, read-out: Lung penetration factor (AUC inf lung/AUC inf plasma)
Protocol: The lung distribution experiment used Male Balb/c (~30 g). After intravenous bolus and inhalation administration of 15 mg/kg and 50 mg/kg, respectively, of 6-methoxyseselin, three animals were sacrificed at 0.5 h, 1 h, 2 h, and 4 h, each. The lung samples were removed, gently blotted dry, weighed, and frozen at −80 °C until processing. On the day of the analysis, tissue samples were allowed to thaw and were weighed, and 2 mL of methanol was added per gram of tissue. The tissues were homogenized for approximately 5 min, and the homogenates were then transferred to Eppendorf® tubes and centrifuged at 3500× g for 15 min at 4 °C. A volume of supernatant was then processed similarly to the plasma samples and analyzed by HPLC-DAD. The lung penetration was calculated using the AUC lung/AUC plasma ratio. The trapezoidal method was used to estimate both AUCs.

[3] = Plasma pharmacokinetics study in mice (non-compartmental analysis, HPLC-DAD); assay type: in vivo, Balb/c mice; conditions: mean ± SD; for k el: read-out: ke (converted)
Protocol: The pharmacokinetic analysis was carried out with Balb/c mice (~30 g) obtained from the Animal Facilities at Oswaldo Cruz Foundation (Fiocruz, Bahia, Brazil) and kept in a room with environmental control (22 ± 2 °C and 12:12 h light–dark cycle), and with free access to water and food until the day of the experiment. Animal care and handling procedures were in strict accordance with the recommendations in the Guide for the Care and Use of Laboratory Animals of the National Institute of Health and the Brazilian College of Animal Experimentation. The protocol was approved by the Institutional Animal Care and Use Committee of FIOCRUZ (CEUA/FIOCRUZ, permit number: L-IGM-013/2021).
The compound was administered to the mice (n = 3 per time point) by inhalation and intravenous routes at 50 and 15 mg/kg, respectively. The intravenous administration was conducted through the lateral tail vein, and the inhalation dosing was conducted using inhalation exposure chambers. The nebulizer device was operated according to the manufacturer’s specifications. The blood samples were collected 0.083, 0.25, 0.5, 0.75, 1, 2, and 4 h after both administrations. The blood samples were centrifuged for plasma separation (6000 rpm, 10 min, 8 °C) and stored at −18 °C until analysis.
The non-compartmental pharmacokinetic parameters of both studies were estimated using PKanalix® Suite 2020R1 software (Lixoft®, Antony, France). The determined PK parameters included the elimination rate constant (ke), the elimination half-life (t1/2), the area under the concentration–time curve (AUC) calculated by the linear trapezoidal rule, the mean residence time (MRT), the total clearance (CL), and the volume of distribution (Vd).

[4] = Long-term stability in mice plasma stored at −18 °C; assay type: in vitro ADME
Protocol: Stability assays were performed in triplicate with the QC samples (LQC and HQC) by adding 6-methoxyseselin to mice plasma. The stability after 30, 45, and 60 days was performed with samples stored at −18 °C. 6-methoxyseselin was considered stable in plasma for the period evaluated when the accuracy was within acceptable limits (RSE within ±15%).

[5] = cited from earlier work
[6] = Balb/c, mouse, inhaled or intranasal, inhalation 50 mg/kg
[7] = Balb/c, mouse, intravenous 15 mg/kg

Kp ([2]; inhaled, inhalation 50 mg/kg): 2.14
Kp ([2]; intravenous 15 mg/kg): 1.45
MRT [3, 6]: 5.4 ± 2.1 h
half-life [3, 6]: 3.3 ± 0.86 h
k el [3, 6]: 5.83e-05 s⁻¹
MRT [3, 7]: 3.23 ± 1.57 h
clearance [3, 7]: 88.7 mL/min/kg
half-life [3, 7]: 2.6 ± 0.73 h
Vd ([3]; Balb/c, mouse, intravenous 15 mg/kg, read-out: Vd): 19.6 ± 1.57 L/kg
k el [3, 7]: 7.5e-05 s⁻¹
Cl ([3]; inhalation 50 mg/kg): 110 ± 39 mL/min/kg
Vd ([3]; inhalation 50 mg/kg): 18.79 ± 2.58 L/kg
Stability in storage (verdict) ([4]; 60 days): unstable
Stability in storage (verdict) ([4]; until day 30): stable
SMILES: COc1cc2ccc(=O)oc2c2c1OC(C)(C)C=C2 [6-methoxyseselin]
Vasorelaxation [1]: potent vasorelaxation

SMILES: CCCC1O[C@@H]2C[C@H]3[C@@H]4CCC5=CC(=O)C=C[C@]5(C)[C@H]4[C@@H](O)C[C@]3(C)[C@]2(C(=O)CO)O1 (stereo partly drawn) [budesonide]
half-life [5]: 2 to 3.6 h
Vd ([5]; reference not given, ref 22 follows in the same paragraph): 2.2 to 3.9 L/kg

SMILES: CC(C)(C)NCC(O)c1ccc(O)c(CO)c1 (stereo not drawn) [salbutamol]
Vd [5]: 3 to 4 L/kg
